Among the data in paper doi:10.1101/838656v1 (biorxiv, 2019) are IC50 and CC50 values, retold here.

The target of data set [1] is BRD4-BD1 (bromodomain-containing protein 4) (Homo sapiens, UniProt O60885). Kind of data set: biochemical.
Data set [2] can be described thus: in vitro. Conditions: human, a431 cells.
For data set [3], the system named is HMGA2 (mammalian high mobility group protein AT-hook 2). The note with it: read-out: Alpha Screen IC50; DNA-binding compound; inhibitor.
For data set [4] the test system is unchanged. Conditions: read-out: Lance Screen IC50; DNA-binding compound; inhibitor.

Molecules are shown by their SMILES. Like-named read-outs stand apart in the source and are kept apart here.

As usually defined, the IC50 is the concentration that inhibits the measured activity by half. What is called CC50 is the concentration giving 50% cytotoxicity.

As for `O=C1c2c(O)ccc(O)c2C(=O)c2c(NCCNCCO)ccc(NCCNCCO)c21` [Mitoxantrone], the half-maximal inhibitory concentration (IC50) in data set [1] was 990 nM; in data set [3] it was 180 nM; in data set [4], 1770 nM. Further, the CC50 in data set [2] worked out at 1650 nM.
In data set [1], `Nc1ccc(-c2nc3ccc(-c4nc5ccc(N)cc5[nH]4)cc3[nH]2)cc1` [Ro 90-7501] gave an IC50 of 16900 nM. Also, in data set [2], the CC50 was > 100000 nM.
In the case of `COc1cccc2c1C(=O)c1c(O)c3c(c(O)c1C2=O)C[C@@](O)(C(C)=O)C[C@@H]3O[C@H]1C[C@H](NCc2ccc(CN[C@@H]3C[C@@H](O[C@H]4C[C@](O)(C(C)=O)Cc5c(O)c6c(c(O)c54)C(=O)c4c(OC)cccc4C6=O)O[C@H](C)[C@@H]3O)cc2)[C@H](O)[C@H](C)O1` [WP631], the figures for the IC50 in data set [1], in data set [3] and in data set [4] were 2050 nM, 44 nM and 170 nM, respectively. The compound further displayed a cytotoxic concentration (CC50) in data set [2] of 170 nM.
In data set [1], `O=C(O)C1=CC(=C(c2ccc(O)c(C(=O)O)c2)c2ccc(O)c(C(=O)O)c2)C=CC1=O` [aurintricarboxylic acid] registered an IC50 of 5000 nM. Moreover, the CC50 in data set [2] was > 100000 nM.
For the compound `Cc1ccc(C(=O)Nc2ccc(S(=O)(=O)O)c3cc(S(=O)(=O)O)cc(S(=O)(=O)O)c23)cc1NC(=O)c1cccc(NC(=O)Nc2cccc(C(=O)Nc3cc(C(=O)Nc4ccc(S(=O)(=O)O)c5cc(S(=O)(=O)O)cc(S(=O)(=O)O)c45)ccc3C)c2)c1` [suramin], the IC50 in data set [1] was > 100000 nM. For the same compound, the CC50 in data set [2] is > 100000 nM.
